Test results published in US20220378780A1, “PHARMACEUTICAL COMPOSITIONS COMPRISING POH DERIVATIVES” (NeOnc Technologies, Inc., priority 2019, published 2022).

Tests used:
[1] = tested on: c-myc, cyclin D1, activated caspase-3 and cleaved PARP-1 in MyLa cells; test: Western blot of marker proteins with anti-oxidants or H2O2; type: cell-based, human; settings: for effect of anti-oxidant on NEO212-induced marker changes: 200 and 500 μM AA or 100 and 300 μM b-ME before 80 μM NEO212, 48 hours
Description: 2. Material and methods 2.1. […] 2.2. […] 2.3. […] 2.4.

[2] = tested on: subcutaneous U-87 gliomas; test: Nude mouse subcutaneous glioma model, tumor growth inhibition; type: in vivo, nude mice; settings: local application via Q-tip, 1 cc/application/day, 8 weeks; growth over 60 days
Description: Inhibition of tumor growth by butyryl-POH was studied in a nude mouse subcutaneous glioma model. Mice were injected with U-87 glioma cells (500,000 cells/injection) and allowed to form a palpable nodule over two weeks. Once palpable nodule was formed, the mice were treated with local application of various compounds as indicated in FIGS. 9A and 9B via a Q-tip (1 cc/application/day) over a period of 8 weeks.

[3] = tested on: glioblastoma, breast cancer, or melanoma cell lines; settings: various in vitro cytotoxicity assays; cited from earlier work
[4] = tested on: USC-04 glioma cancer stem cells; test: MTT cytotoxicity assay, USC-04; type: cell-based; settings: USC-04; TMZ 0-400 uM, POH 0-2 mM
Description: (§1) Cancer Lett. 2011 Mar. 28; 302(2):100-8.

[5] = tested on: HUT102 cells; test: MTT cell viability assay, HUT102 (Example 15); type: cell-based, human; settings: HUT102, 72 hours
Description: (§2) 2. Material and methods 2.1. […] 2.2. […] 2.3. […] 2.4. […] 2.5.

[6] = tested on: USC-02 glioma cancer stem cells; test: MTT cytotoxicity assay, USC-02; type: cell-based; settings: USC-02; TMZ 0-400 uM, POH 0-2 mM
Description: as §1

[7] = tested on: TMZ resistant (U251TR) U251 cells; test: Colony forming assay, TMZ resistant U251TR; type: cell-based, human
Description: (§3) Colony forming assays were carried out after cells were treated with TMZ alone, POH alone, and the TMZ-POH conjugate. […] Cancer Lett. 2011 Mar. 28; 302(2):100-8.

[8] = tested on: TMZ sensitive (U251) cells; test: Colony forming assay, TMZ sensitive U251; type: cell-based, human
Description: as §3

[9] = tested on: U87, A172 and U251 human glioma cells; test: MTT cytotoxicity assay on human malignant glioma cells; type: cell-based
Description: In vitro efficacy of the present composition can be determined using methods well known in the art. For example, the cytotoxicity of the present monoterpene (or sesquiterpene) and/or the therapeutic agents may be studied by MTT [3-(4,5-dimethylthiazol-2-yl)-2,5-diphenyl tetrazolium bromide] cytotoxicity assay. MTT assay is based on the principle of uptake of MTT, a tetrazolium salt, by metabolically active cells where it is metabolized into a blue colored formazon product, which can be read spectrometrically. J. of Immunological Methods 65: 55 63, 1983. The cytotoxicity of the present monoterpene (or sesquiterpene) derivative and/or the therapeutic agents may be studied by colony formation assay. Functional assays for inhibition of VEGF secretion and IL-8 secretion may be performed via ELISA. Cell cycle block by the present monoterpene (or sesquiterpene) derivative and/or the therapeutic agents may be studied by standard propidium iodide (PI) staining and flow cytometry. Invasion inhibition may be studied by Boyden chambers. In this assay a layer of reconstituted basement membrane, Matrigel, is coated onto chemotaxis filters and acts as a barrier to the migration of cells in the Boyden chambers. Only cells with invasive capacity can cross the Matrigel barrier. Other assays include, but are not limited to cell viability assays, apoptosis assays, and morphological assays.
Then U87, A172 and U251 cells were treated with dimethyl celecoxib bisPOH carbamate (POH-DMC) (e.g., synthesized by the method in Example 1), and the MTT cytotoxicity assays performed (FIG. 2).
Then TMZ-resistant glioma cell lines U87, A172 and U251 cells were treated with temozolomide POH carbamate (POH-TMZ) (e.g., synthesized by the method in Example 3).

[10] = tested on: LN229 human glioma cells; test: MTT assay, rolipram vs POH-Rolipram, LN229; type: cell-based; settings: for IC50: MTT
Description: (§4) To compare the cytotoxicity of Rolipram POH Carbamate (POH-Rolipram) (e.g., synthesized by the method in Example 5) with rolipram, a […] inducing differentiation and apoptosis in glioma cells, A172, U87, U251 and LN229 human glioma cells were treated with either POH-Rolipram or rolipram for 48 hours. […] In the presence of POH-rolipram, IC50 is achieved at concentrations as low as 50 uM. […] IC50 is not met at 1000 uM. […] POH-rolipram achieves IC50 at 50 uM, with almost 100% cytoxicity at 100 uM. […] On the other hand, IC50 for POH-rolipram is achieved at 100 uM, with almost 100% cytotoxicity at […].

[11] = tested on: U87 human glioma cells; test: MTT assay, rolipram vs POH-Rolipram, U87; type: cell-based; settings: U-87 cells, 48 hours
Description: as §4

[12] = tested on: A172 human glioma cells; test: MTT assay, rolipram vs POH-Rolipram, A172; type: cell-based; settings: A-172 cells, 48 hours
Description: as §4

[13] = tested on: U251 human glioma cells; test: MTT assay, rolipram vs POH-Rolipram, U251; type: cell-based; settings: for IC50: 48 hours, MTT
Description: as §4

[14] = tested on: HUT78 cells; test: FACS analysis of cell death with 7-AAD; type: cell-based, human; settings: HUT78, highest concentration 300, 72 hours
Description: as §2

[15] = tested on: MyLa cells; test: MTT cell viability assay, MyLa (Example 15); type: cell-based, human; settings: Homo sapiens, 72 hours
Description: as §2

[16] = tested on: HUT78 cells; test: MTT cell viability assay, HUT78 (Example 15)
Description: Pharmacological agents—NEO212 was dissolved in DMSO at 100 mM. TMZ was purchased from Sigma Aldrich (St. Louis, Mo.) and dissolved in DMSO (Santa Cruz Biotechnology, Dallas, Tex.) to a concentration of 50 mM. POH was purchased from Sigma-Aldrich and diluted in DMSO to 100 mM. […] Stock solutions of all drugs were stored at −20° C. Staurosporine (STSP) was purchased from Selleck Chemicals (Houston, Tex.), stored at 4° C. protected from light, and dissolved in DMSO before use. Ascorbic acid (AA) and beta-mercaptoethanol (b-ME) (Sigma Aldrich) were prepared fresh before use. Crystalline AA was dissolved in phosphate-buffered saline (PBS) to 25 mM; b-ME was diluted in medium to 25 mM. […] Cell lines—Three different human CTLC cell lines were used. […] Both media also contained 100 U/mL penicillin and 0.1 mg/mL streptomycin. Penicillin, streptomycin, and RPMI (prepared with raw materials from Cellgro/MediaTech, Manassas, Va.) were provided by the Cell Culture Core lab of the USC/Norris Comprehensive Cancer Center. […] Cells were kept in a humidified incubator at 37° C. and a 5% CO2 atmosphere. FBS was obtained from Omega Scientific (Tarzana, Calif.) and from X&Y Cell Culture (Kansas City, Mo.). […] MTT assay—Methylthiazoletetrazolium (MTT) assays were performed as follows. Cells were seeded into 96-well plates in a volume of 50 μL per well at 3.0-5.0×10^5 cells/mL. An additional 50 μL of medium containing various concentrations of drug (or vehicle) was added and the cells were incubated for different lengths of time. This was followed by the addition of 10 μL thiazolyl-blue tetrazolium (i.e., MTT; Sigma Aldrich) from a stock solution of 5 mg/mL in phosphate-buffered saline (PBS). Cells were returned to the incubator for 4 hours. Thereafter, the reaction was stopped and the cells were lysed by the addition of 100 μL solubilization solution (10% sodium dodecyl sulfate in 0.01 M hydrochloric acid). The 96-well plate was left in the cell culture incubator over night for complete solubilization of the MTT crystals, and the optical density (OD) of each well was determined the next day in an ELISA plate reader at 560 nm. The background value (=OD of control wells containing medium without cells+MTT+solubilization solution) was subtracted from all measured values. In individual experiments, each treatment condition was set up in quadruplicate, and each experiment was repeated several times independently. […] Cell proliferation analysis—Cell proliferation was assessed by counting cells over time. Independent cell cultures were exposed to different concentrations of NEO212. At different times, aliquots of cells were removed, mixed with Trypan blue, and counted in a hemocytometer. Blue cells were considered dead, whereas unstained cells were counted as live cells. […] Fluorescence-activated cell sorting (FACS) analysis—Cells were seeded in 6-well tissue culture plates at 2×10^5 cells/mL, followed by drug treatment. After 72 hours, cells were collected, washed twice with PBS, transferred to a microcentrifuge tube, and suspended in 200 μL of 1× binding buffer solution, which was made fresh from 10x binding buffer (0.2 μm sterile-filtered 0.1 M HEPES, pH 7.4; 1.4 M NaCl; 25 mM CaCl2)). Then 1 μL of a 1 mg/mL 7-amino-actinomycin D (7-AAD) solution (Thermo Fisher Scientific, Waltham, Mass.) was added. After 20 minutes of incubation on ice, cell fluorescence was analyzed on a FACSAria Flow Cytometer (Becton Dickinson Biosciences Ltd., Franklin Lakes, N.J.).

[17] = cancer patients; cited from earlier work
[18] = tested on: HuT 78 cells; test: MTT assay on HuT 78 cells (Example 14); settings: HuT 78, 72 hours
Description: HuT 78 cells are cutaneous T lymphocytes derived from a patient with Sézary syndrome.
HuT 78 cells were treated in vitro with (i) temozolomide (50, 100, 250 μM), (ii) POH-TMZ conjugate (“NEO212”, 25, 50, 100 μM), (iii) NEO412 which is the triple conjugate of temozolomide (TMZ), perillyl alcohol (POH), and linoleic acid (25, 50, 100, 250 μM), or (iv) vehicle alone. Seventy-two hours after the addition of drugs or vehicle, cell viability was determined by standard MTT (methylthiazoletetrazolium) assay.

SMILES: O=C1O[C@H]([C@@H](O)CO)C(O)=C1O [AA, ascorbic acid]
- effect of anti-oxidant on NEO212-induced marker changes [1]: prevented the anticancer impact of NEO212

SMILES: C=C(C)C1CC=C(COC(=O)CCC)CC1 (stereo not shown) [Butyryl-POH]
- inhibition of tumor growth [2]: greatest inhibition of tumor growth

SMILES: OO [H2O2, hydrogen peroxide]
- effect on proliferation and apoptosis markers ([1]; 200 μM H2O2, 48 hours): clear down-regulation of c-myc and cyclin D1 proteins, along with strong activation of caspase-3 and cleavage of PARP-1

SMILES: C=C(C)[C@@H]1CC=C(CO)CC1 [POH, perillyl alcohol, reference compound]
- IC50 [3]: 700 to 1800 µM
- cytotoxicity in MTT assay [4]: demonstrated cytotoxicity
- activity on viability in MTT assay ([5]; up to 300 μM): very minimal activity
- cytotoxicity in MTT assay [6]: demonstrated cytotoxicity
- cytotoxicity in colony forming assay [7]: demonstrated cytotoxicity
- cytotoxicity in colony forming assay [8]: demonstrated cytotoxicity

SMILES: C=C(C)C1CC=C(COC(=O)N(C(=O)OCC2=CCC(C(=C)C)CC2)S(=O)(=O)c2ccc(-n3nc(C(F)(F)F)cc3-c3cc(C)ccc3C)cc2)CC1 (stereo not shown) [POH-DMC]
- cytotoxicity in MTT assay [9]: much better cytotoxicity than DMC alone

SMILES: C=C(C)C1CC=C(COC(=O)N2CC(c3ccc(OC)c(OC4CCCC4)c3)CC2=O)CC1 (stereo not shown) [POH-rolipram, 4-(3-cyclopentyloxy-4-methoxyphenyl)-2-oxo-pyrrolidine-1-carboxylic acid 4-isopropenyl cyclohex-1-enylmethyl ester]
- IC50 ([10]; 48 hours): 100 µM
- cytotoxicity ([10]; at 10 uM): ~100%
- IC50 [11]: 180 µM
- IC50 [12]: 50 µM
- IC50 ([13]; U251 cells): 50 µM
- cytotoxicity ([13]; U251 cells, at 100 uM): ~100%

SMILES: Cn1nnc2c(C(N)=O)ncn2c1=O [TMZ, temozolomide, reference compound]
- cell death [14]: 26%
- cytotoxicity in MTT assay [4]: did not induce significant cytotoxicity
- IC50 ([5]; Homo sapiens, HuT-102): 6 to 8 µM
- IC50 [15]: > 300 µM
- reduction of viability ([16]; HUT78, 100 μM): about 30%
- IC50 ([16]; HUT78, 72 hours): > 300 µM
- cytotoxicity in MTT assay [6]: did not induce significant cytotoxicity
- cytotoxicity in colony forming assay [7]: minimal cytotoxicity
- cytotoxicity in MTT assay [9]: minimal cytotoxicity
- peak plasma levels [17]: 50 to 70 µM
- cytotoxic effect on MF cells in MTT assay [18]: does not show much cytotoxicity
- cytotoxicity in colony forming assay [8]: demonstrated cytotoxicity

SMILES: OCCS [b-ME, beta-mercaptoethanol]
- effect of anti-oxidant on NEO212-induced marker changes [1]: prevented the anticancer impact of NEO212

SMILES: COc1ccc(C2CNC(=O)C2)cc1OC1CCCC1 (stereo not shown) [rolipram, reference compound]
- IC50 ([10]; Homo sapiens, LN-229, 48 hours): > 100 µM
- IC50 ([11]; Homo sapiens, U-87 MG): > 1000 µM
- IC50 ([12]; Homo sapiens): ~1000 µM
- IC50 ([13]; Homo sapiens, U-251, U251 cells): 170 µM
- plateau cytotoxicity ([13]; human, 48 h): 60%
